This assay concerns Staphylococcus. The assay can be described thus: Systemic infections of mice (Handbook of animal models of infection). The format is in vivo. Particulars: parenteral or oral administration, Probit analysis. An excerpt: The active compounds of the present invention show e.g. activity in systemic infections of mice determined according to the Handbook of animal models of infection.
ED50=Effective dosage in mg/kg body weight per application by which 50% of the treated animals are protected from death; calculated by Probit analysis (n=8 animals/group).

As for `C=CC1(C)CC(OC(=O)CS[C@H]2CCCN(C(=O)[C@H](N)C(C)C)C2)C2(C)C(C)CCC3(CCC(=O)C32)C(C)C1O` (stereo partly drawn) [Example 1], the “ED50 (dosage by which 50% of the treated animals are protected from death)” value is recorded as around 7.0 mg/kg body weight. For `C=CC1(C)CC(OC(=O)CSC2CCN(C(=O)[C@H](N)C(C)C)C2)C2(C)C(C)CCC3(CCC(=O)C32)C(C)C1O` (stereo partly drawn) [Example 5, 14-O—[(N-(3-methyl-2(R)-amino-butyryl)-pyrrolidine-3-yl)-sulfanylacetyl]-mutilin] the value was “about 11.0 mg/kg body weight”; for `C=CC1(C)CC(OC(=O)CSC2CCN(C(=O)[C@H](N)Cc3c[nH]cn3)C2)C2(C)C(C)CCC3(CCC(=O)C32)C(C)C1O` (stereo partly drawn) [Example 6, 4-O—[(N—(R)-histidinyl-pyrrolidin-3-yl)sulfanylacetyl]mutilin], “about 11.0 mg/kg body weight”.

Source of the values: US7569587B2, “Antibacterial mutilins” (Nabriva Therapeutics AG, priority 2000, dated 2009).
